Measurements: ChEMBL document CHEMBL4229562, “Introduction of a Methyl Group Curbs Metabolism of Pyrido[3,4- d]pyrimidine Monopolar Spindle 1 (MPS1) Inhibitors and Enables the Discovery of the Phase 1 Clinical Candidate N2-(2-Ethoxy-4-(4-methyl-4 H-1,2,4-triazol-3-yl)phenyl)-6-methyl- N8-neopentylpyrido[3,4- d]pyrimidine-2,8-diamine …” (J Med Chem, 2018)
In brackets after ≈: the same amount, converted by molar mass.

How the values were obtained:
[1] = Drug metabolism in human liver microsomes assessed as 1-(2-(2-methoxy-4-(4-methyl-4H-1,2,4-triazol-3-yl)phenylamino)-6-methylpyrido[3,4-d]pyrimidin-8-ylamino)-2,2-dimethylpropan-1-ol formation at 1 uM preincubated for 10 mins followed NADPH/UDP-glucuronic acid addition and measured after 30 mins by LC-MS/MS analysis; assay type: ADME, microsome; conditions: 0.5 h
[2] = target: T1, Dual specificity protein kinase TTK (Homo sapiens, UniProt P33981)
T1 sequence (P33981 whole entry): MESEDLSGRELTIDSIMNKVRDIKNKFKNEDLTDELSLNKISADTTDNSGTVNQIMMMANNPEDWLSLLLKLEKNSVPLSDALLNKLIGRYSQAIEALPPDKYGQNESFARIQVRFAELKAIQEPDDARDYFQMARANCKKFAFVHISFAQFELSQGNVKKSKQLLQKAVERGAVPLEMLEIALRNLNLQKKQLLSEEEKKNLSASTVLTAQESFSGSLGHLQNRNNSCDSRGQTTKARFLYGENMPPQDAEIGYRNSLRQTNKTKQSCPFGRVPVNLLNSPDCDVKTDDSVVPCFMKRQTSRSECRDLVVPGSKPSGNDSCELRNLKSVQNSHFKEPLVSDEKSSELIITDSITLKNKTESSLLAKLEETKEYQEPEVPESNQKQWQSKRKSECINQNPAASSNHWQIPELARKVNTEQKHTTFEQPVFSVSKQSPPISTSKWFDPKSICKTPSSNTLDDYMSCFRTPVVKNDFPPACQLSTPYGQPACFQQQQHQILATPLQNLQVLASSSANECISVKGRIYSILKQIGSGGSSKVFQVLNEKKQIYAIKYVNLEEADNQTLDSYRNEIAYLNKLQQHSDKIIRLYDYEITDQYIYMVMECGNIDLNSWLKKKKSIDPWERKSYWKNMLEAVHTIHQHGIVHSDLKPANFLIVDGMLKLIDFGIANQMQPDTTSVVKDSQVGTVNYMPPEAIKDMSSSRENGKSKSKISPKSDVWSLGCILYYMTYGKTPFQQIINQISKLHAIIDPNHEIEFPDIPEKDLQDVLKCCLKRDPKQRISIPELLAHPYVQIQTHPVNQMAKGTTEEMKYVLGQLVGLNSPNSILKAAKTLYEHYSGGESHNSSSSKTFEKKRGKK
Description: Inhibition of MPS1 autophosphorylation at Thr33/Ser37 in human HCT116 cells after 2 hrs by MSD assay

[3] = Solubility of the compound in PBS buffer at pH 7.4 by HPLC analysis; assay type: physicochemical
[4] = target: T1, Dual specificity protein kinase TTK; remark: listed apart in the source
Description: Inhibition of full length human N-terminal 6xHis-tagged MPS1 expressed in baculovirus expression system using 5FAM-H236 peptide as substrate after 60 to 90 mins by caliper assay

[5] = Intrinsic clearance in human liver microsomes assessed per mg protein at 1 uM preincubated for 10 mins followed NADPH/UDP-glucuronic acid addition and measured after 30 mins by LC-MS/MS analysis; assay type: ADME, microsome; conditions: 0.5 h
CDK2/Cyclin A2 = CDK2/Cyclin A2 (Homo sapiens, UniProt P24941)
[6] = Intrinsic clearance in CD1 mouse liver microsomes assessed per mg protein at 1 uM preincubated for 10 mins followed NADPH/UDP-glucuronic acid addition and measured after 30 mins by LC-MS/MS analysis; assay type: ADME, microsome; conditions: 0.5 h
[7] = Lipophilicity, log P of the compound; assay type: physicochemical; conditions: octanol/water
[8] = Protein binding in mouse plasma; assay type: ADME, cell-free
[9] = Cmax in mouse at 5 mg/kg, po by ESI-LCMS/MS analysis; assay type: ADME, organism-based; design: dose 5 mg/kg, route oral; conditions: in vivo
[10] = Cmax in rat at 5 mg/kg, po by ESI-LCMS/MS analysis; assay type: ADME, organism-based; design: dose 5 mg/kg, route oral; conditions: in vivo
Mus musculus [11] = assay: Oral bioavailability in mouse at 5 mg/kg by ESI-LCMS/MS analysis; assay type: ADME, organism-based; conditions: in vivo
[12] = AUClast in mouse at 5 mg/kg, po measured after 6 hrs by ESI-LCMS/MS analysis; assay type: ADME, organism-based; conditions: in vivo
Rattus norvegicus [13] = assay: Half life in rat at 1 mg/kg, iv by ESI-LCMS/MS analysis; assay type: ADME, organism-based; conditions: in vivo
Mus musculus [14] = assay: Half life in mouse at 5 mg/kg, iv by ESI-LCMS/MS analysis; assay type: ADME, organism-based; conditions: in vivo
Rattus norvegicus [15] = assay: Oral bioavailability in rat at 5 mg/kg by ESI-LCMS/MS analysis; assay type: ADME, organism-based; conditions: in vivo
[16] = Volume of distribution at steady state in rat at 1 mg/kg, iv by ESI-LCMS/MS analysis; assay type: ADME, organism-based; conditions: in vivo, read-out: Vdss
[17] = Clearance in mouse at 5 mg/kg, iv by ESI-LCMS/MS analysis; assay type: ADME, organism-based; conditions: in vivo
[18] = Volume of distribution at steady state in mouse at 5 mg/kg, iv by ESI-LCMS/MS analysis; assay type: ADME, organism-based; conditions: in vivo, read-out: Vdss
[19] = Clearance in rat at 2.5 mg/kg, iv by ESI-LCMS/MS analysis; assay type: ADME, organism-based; conditions: in vivo
Rattus norvegicus [20] = assay: Half life in rat at 2.5 mg/kg, iv by ESI-LCMS/MS analysis; assay type: ADME, organism-based; conditions: in vivo
[21] = target: Mitogen-activated protein kinase 9 (Homo sapiens, UniProt P45984); assay: Inhibition of recombinant human full length His-tagged JNK2 expressed in baculovirus expression system by Z'-LYTE assay
Chain of Mitogen-activated protein kinase 9 (P45984 whole entry, the tested form may be a part): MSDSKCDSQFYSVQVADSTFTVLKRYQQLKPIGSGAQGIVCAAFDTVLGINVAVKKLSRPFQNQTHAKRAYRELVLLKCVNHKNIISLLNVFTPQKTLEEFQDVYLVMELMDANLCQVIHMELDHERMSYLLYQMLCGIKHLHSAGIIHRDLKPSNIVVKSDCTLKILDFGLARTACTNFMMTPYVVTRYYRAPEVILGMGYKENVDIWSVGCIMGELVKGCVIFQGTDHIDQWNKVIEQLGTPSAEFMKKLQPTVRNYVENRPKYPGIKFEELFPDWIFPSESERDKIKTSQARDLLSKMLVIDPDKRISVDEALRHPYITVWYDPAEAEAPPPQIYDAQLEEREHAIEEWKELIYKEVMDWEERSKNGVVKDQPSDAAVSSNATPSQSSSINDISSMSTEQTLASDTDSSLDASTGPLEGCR

[22] = target: Leucine-rich repeat serine/threonine-protein kinase 2 (Homo sapiens, UniProt Q5S007); assay: Inhibition of recombinant human GST-tagged LRRK2 (970 to 2527 residues) expressed in baculovirus expression system by Z'-LYTE assay
Chain of Leucine-rich repeat serine/threonine-protein kinase 2 (Q5S007 whole entry, the tested form may be a part): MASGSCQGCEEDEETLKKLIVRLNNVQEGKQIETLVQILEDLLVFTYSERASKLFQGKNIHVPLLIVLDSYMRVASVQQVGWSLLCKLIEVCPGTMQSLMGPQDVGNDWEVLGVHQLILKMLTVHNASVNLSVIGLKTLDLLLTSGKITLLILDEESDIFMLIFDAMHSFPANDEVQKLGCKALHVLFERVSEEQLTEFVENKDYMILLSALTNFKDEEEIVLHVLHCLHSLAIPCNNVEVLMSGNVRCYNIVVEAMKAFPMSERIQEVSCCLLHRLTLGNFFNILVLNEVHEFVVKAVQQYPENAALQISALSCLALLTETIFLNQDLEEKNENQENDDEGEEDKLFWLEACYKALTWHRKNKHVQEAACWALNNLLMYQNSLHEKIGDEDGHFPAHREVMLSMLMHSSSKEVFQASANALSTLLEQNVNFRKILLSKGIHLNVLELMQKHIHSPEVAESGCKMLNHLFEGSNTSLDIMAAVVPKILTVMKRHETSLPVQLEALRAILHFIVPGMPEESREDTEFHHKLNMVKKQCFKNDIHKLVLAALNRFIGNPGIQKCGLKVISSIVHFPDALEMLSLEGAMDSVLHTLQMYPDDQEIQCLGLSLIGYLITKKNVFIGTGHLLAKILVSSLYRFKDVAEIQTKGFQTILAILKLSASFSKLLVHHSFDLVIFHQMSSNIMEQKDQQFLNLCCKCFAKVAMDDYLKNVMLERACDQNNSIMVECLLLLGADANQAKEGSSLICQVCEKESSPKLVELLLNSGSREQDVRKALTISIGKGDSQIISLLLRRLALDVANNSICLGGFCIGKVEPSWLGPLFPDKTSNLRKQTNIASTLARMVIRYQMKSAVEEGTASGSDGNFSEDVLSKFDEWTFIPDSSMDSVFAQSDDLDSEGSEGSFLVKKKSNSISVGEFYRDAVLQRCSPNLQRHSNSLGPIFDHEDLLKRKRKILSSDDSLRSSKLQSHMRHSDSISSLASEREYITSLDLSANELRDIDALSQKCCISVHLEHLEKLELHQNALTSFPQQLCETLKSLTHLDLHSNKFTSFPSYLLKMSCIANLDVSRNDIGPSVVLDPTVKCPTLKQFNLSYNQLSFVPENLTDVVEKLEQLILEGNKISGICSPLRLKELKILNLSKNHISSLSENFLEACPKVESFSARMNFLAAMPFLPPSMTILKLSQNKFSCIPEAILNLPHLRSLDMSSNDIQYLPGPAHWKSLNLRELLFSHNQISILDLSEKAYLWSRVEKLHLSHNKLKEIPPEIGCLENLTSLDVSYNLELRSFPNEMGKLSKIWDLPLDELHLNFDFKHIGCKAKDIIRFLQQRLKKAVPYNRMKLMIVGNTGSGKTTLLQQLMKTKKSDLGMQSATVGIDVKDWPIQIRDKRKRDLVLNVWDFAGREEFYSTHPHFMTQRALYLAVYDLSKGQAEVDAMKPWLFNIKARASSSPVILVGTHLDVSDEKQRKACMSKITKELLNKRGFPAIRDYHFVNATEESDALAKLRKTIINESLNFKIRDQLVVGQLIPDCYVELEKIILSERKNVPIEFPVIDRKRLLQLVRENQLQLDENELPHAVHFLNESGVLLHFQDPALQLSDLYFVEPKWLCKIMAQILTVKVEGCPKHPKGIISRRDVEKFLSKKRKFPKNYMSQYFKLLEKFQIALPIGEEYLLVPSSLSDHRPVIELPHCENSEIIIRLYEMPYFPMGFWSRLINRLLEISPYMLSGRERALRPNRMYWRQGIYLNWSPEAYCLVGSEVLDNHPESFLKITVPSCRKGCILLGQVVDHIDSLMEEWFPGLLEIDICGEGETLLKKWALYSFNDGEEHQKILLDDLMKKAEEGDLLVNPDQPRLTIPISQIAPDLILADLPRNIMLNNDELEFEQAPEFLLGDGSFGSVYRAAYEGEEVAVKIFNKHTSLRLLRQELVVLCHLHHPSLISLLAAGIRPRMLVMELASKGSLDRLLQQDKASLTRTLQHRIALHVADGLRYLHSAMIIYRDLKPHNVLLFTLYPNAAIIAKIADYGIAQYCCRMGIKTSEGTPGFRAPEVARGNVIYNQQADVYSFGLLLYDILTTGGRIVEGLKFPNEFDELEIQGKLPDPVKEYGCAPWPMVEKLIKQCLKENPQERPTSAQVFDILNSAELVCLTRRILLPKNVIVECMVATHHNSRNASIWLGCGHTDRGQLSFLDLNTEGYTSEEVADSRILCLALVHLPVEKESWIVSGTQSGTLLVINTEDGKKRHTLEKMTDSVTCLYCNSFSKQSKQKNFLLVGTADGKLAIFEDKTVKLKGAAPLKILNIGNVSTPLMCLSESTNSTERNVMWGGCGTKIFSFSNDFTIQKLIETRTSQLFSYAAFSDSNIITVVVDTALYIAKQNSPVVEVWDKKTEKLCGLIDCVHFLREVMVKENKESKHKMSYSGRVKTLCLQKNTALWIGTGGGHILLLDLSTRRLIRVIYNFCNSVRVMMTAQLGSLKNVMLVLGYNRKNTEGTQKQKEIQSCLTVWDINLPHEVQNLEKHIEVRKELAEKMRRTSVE

[23] = Volume of distribution at steady state in rat at 2.5 mg/kg, iv by ESI-LCMS/MS analysis; assay type: ADME, organism-based; conditions: in vivo, read-out: Vdss
[24] = target: Mitogen-activated protein kinase 10 (Homo sapiens, UniProt P53779); assay: Inhibition of recombinant human full length N-terminal GST-tagged JNK3 expressed in baculovirus expression system by Z'-LYTE assay
Chain of Mitogen-activated protein kinase 10 (P53779 whole entry): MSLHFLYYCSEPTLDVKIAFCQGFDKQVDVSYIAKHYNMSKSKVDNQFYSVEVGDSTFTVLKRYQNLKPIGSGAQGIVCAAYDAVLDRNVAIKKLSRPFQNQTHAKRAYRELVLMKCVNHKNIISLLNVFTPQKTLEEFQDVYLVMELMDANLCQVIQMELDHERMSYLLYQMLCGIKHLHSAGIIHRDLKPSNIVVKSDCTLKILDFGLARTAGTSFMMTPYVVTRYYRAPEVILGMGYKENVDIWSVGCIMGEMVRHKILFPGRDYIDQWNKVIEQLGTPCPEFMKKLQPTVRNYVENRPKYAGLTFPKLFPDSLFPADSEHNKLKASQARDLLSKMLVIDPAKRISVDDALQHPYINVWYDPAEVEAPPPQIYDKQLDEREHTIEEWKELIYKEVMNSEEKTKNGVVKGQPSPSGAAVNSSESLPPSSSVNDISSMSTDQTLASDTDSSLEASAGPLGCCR

[25] = target: Mitogen-activated protein kinase 8 (Homo sapiens, UniProt P45983); assay: Inhibition of recombinant human full length His-tagged JNK1 expressed in baculovirus expression system by Z'-LYTE assay
Chain of Mitogen-activated protein kinase 8 (P45983 whole entry): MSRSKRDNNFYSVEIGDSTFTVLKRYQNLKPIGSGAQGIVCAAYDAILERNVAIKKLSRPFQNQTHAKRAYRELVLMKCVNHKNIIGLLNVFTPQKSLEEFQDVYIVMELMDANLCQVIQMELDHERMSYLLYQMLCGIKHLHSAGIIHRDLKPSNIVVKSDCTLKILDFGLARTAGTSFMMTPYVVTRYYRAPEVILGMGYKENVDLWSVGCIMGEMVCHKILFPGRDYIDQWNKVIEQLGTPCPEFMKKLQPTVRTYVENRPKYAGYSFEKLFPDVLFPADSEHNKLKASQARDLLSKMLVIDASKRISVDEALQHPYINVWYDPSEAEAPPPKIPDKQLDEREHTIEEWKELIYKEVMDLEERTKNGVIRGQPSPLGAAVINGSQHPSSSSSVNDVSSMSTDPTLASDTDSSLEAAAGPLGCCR

[26] = Dissociation constant, pKa of the compound; assay type: physicochemical
[27] = AUClast in rat at 5 mg/kg, po measured after 24 hrs by ESI-LCMS/MS analysis; assay type: ADME, organism-based; conditions: in vivo
[28] = AUClast in dog at 5 mg/kg, po measured after 48 hrs by ESI-LCMS/MS analysis; assay type: ADME, organism-based, Canis lupus familiaris; conditions: in vivo
Canis familiaris [29] = assay: Half life in dog at 1 mg/kg, iv by ESI-LCMS/MS analysis; assay type: ADME, organism-based, Canis lupus familiaris; conditions: in vivo
[30] = Oral bioavailability in dog at 5 mg/kg by ESI-LCMS/MS analysis; assay type: ADME, organism-based, Canis lupus familiaris; conditions: in vivo
[31] = Cmax in dog at 5 mg/kg, po by ESI-LCMS/MS analysis; assay type: ADME, organism-based, Canis lupus familiaris; design: dose 5 mg/kg, route oral; conditions: in vivo
Canis familiaris [32] = assay: Volume of distribution at steady state in dog at 1 mg/kg, iv by ESI-LCMS/MS analysis; assay type: ADME, organism-based, Canis lupus familiaris; conditions: in vivo

Row | SMILES | IC50 [2] | solubility [3] | IC50 [4] | Ki [4] | CLH [5] | IC50 (CDK2/Cyclin A2) | Ki (CDK2/Cyclin A2) | CLH [6] | logP [7] | PPB [8] | Cmax [9] | Cmax [10] | F (Mus musculus [11]) | AUC(0-t) at 6 h [12] | t1/2 (Mus musculus [14]) | F (Rattus norvegicus [15]) | clearance [17] | Vd [18] | further results
1 | COc1cc(-c2nncn2C)ccc1Nc1ncc2cc(C)nc(NCC(C)(C)C)c2n1 | 30 nM | 8.6 µM (≈ 3.72 µg/mL) | 13 nM | 0.13 nM | 23.8 µL/min/mg | 130 nM | 65 nM | 41.1 µL/min/mg | 3.88 | – | – | – | – | – | – | – | – | – | Drug metabolism [1]: Metabolite_Detected
2 | CCOc1cc(-c2nncn2C)ccc1Nc1ncc2cc(C)nc(N[C@@H](C)C(C)(C)C)c2n1 | 23 nM | – | 4.7 nM | 0.047 nM | 15.2 µL/min/mg | 150 nM | 77 nM | 25.3 µL/min/mg | 4.61 | 99.91% | 2920 nM | 1890 nM | 86% | 13.8 µM·h | 3.47 h | 92% | 8.4 mL/min/kg | 2.19 L/kg | t1/2 (Rattus norvegicus [13]): 4.52 h; Vd [16]: 1.88 L/kg
3 | CCOc1cc(-c2nncn2C)ccc1Nc1ncc2cc(C)nc(NCC(C)(C)C)c2n1 [BOS-172722] | 63 nM | 6.6 µM (≈ 2.95 µg/mL) | 11 nM | 0.11 nM | 8 µL/min/mg | 1020 nM | 510 nM | 26.3 µL/min/mg | 4.23 | 99.85% | 2760 nM | 813 nM | 81% | 11 µM·h | 2.68 h | 63% | 10.9 mL/min/kg | 2.46 L/kg | clearance [19]: 10.1 mL/min/kg; t1/2 (Rattus norvegicus [20]): 4.66 h; IC50 [21]: 76 nM; IC50 [22]: 48 nM; Vd [23]: 3.52 L/kg; IC50 [24]: 242 nM; IC50 [25]: 92 nM; pKa [26]: 2.63 to 6.22; AUC(0-t) at 24 h [27]: 11.3 µM·h
4 | CCOc1cc(-c2nncn2C)ccc1Nc1ncc2cc(C)nc(NCC(C)(C)C)c2n1.Cl.Cl | – | – | – | – | – | – | – | – | – | – | – | – | – | – | – | – | – | – | AUC(0-t) at 48 h [28]: 147 µM·h; t1/2 (Canis familiaris [29]): 12 h; bioavailability [30]: 100%; Cmax [31]: 7770 nM; Vdss (Canis familiaris [32]): 1.1 L/kg
